# Results reported in PMC11279931, “Development and Evaluation of Docetaxel-Loaded Nanostructured Lipid Carriers for Skin Cancer Therapy” (Pharmaceutics, 2024).
# How the values were obtained:
# [1] = Docetaxel equilibrium solubility in molten solid lipids; format: physicochemical; settings: melted state at 75 °C, 24 h
# Procedure: To assess the solubility of the active substance, various solid lipids were examined (such as tetradecanoic acid, decanoic acid, palmitic acid, stearic acid, GMS-SE, GMS, sorbitan monostearate, cetyl palmitate, Gelucire® 43/01, and Suppocire® NAS 50). Initially, 500 mg of each solid lipid was accurately weighed and melted. Subsequently, excess docetaxel was added to the molten lipid. The drug–lipid mixture was kept at a constant temperature of 75 °C, thus maintaining a minimum of 10 °C above the melting point of the solid lipids. The mixture was stirred at 750 rpm for 24 h. Using preheated utensils, a predetermined amount of supernatant was carefully transferred into a 5 mL volumetric flask. The transfer was done by weight to ensure precision and consistency in sample size across all tests. The transferred sample was dissolved using a suitable solvent selected based on its compatibility with both the lipid and docetaxel. Choices like methanol, dichloromethane, DMSO, or their mixtures were used depending on their efficacy in dissolving the sample thoroughly. […]
# For the quantitative analysis of docetaxel, a Jasco LC-4000 Series HPLC system (JASCO Corporation, Tokyo, Japan) containing a quaternary pump (model PU-4180), an autosampler (model AS-4150), a DAD detector (model MD-4010), and a column thermostat (model CO-4061) was employed. […]
# HUVEC normal cells [2] = test: MTS cytotoxicity assay; format: cell-based, human
# Procedure: SK-MEL-24 (human melanoma cell line—HTB-71) and HUVEC (human primary umbilical vein endothelial cells—CRL-1730) were purchased from the American Type Culture Collection (ATCC). HUVEC normal cells were used as a reference. Adherent cells were maintained in culture in DMEM/F12 medium added by 2 mM L-glutamine, 10% fetal bovine serum, 100 units/mL penicillin, 100 μg/mL streptomycin, and incubated at 37 °C in 5% CO2 humidified atmosphere. After 24 h, adherent cells were treated with different concentrations of the compounds for different timeframes. A 5-FU conventional oncology drug used in cancer treatments can be used as a positive control of the experiments. […]
# All assays were performed in triplicate in 96-well microtiter plates with flat bottom (Falcon), using CellTiter 96 Aqueous One Solution Cell Proliferation Assay (Promega, Madison, WI, USA), an MTS-based colorimetric assay. […] The reduction of the tetrazolium compound to formazan was spectrophotometrically measured at λ = 492 nm using a Dynex plate reader (DYNEX Technologies MRS, Chantilly, VA, USA). The percentage of viability compared to untreated cells (considered 100% viable) was calculated with the formula:(2) Cell viability=absorbance of treated cells−absorbance of culture medium/absorbance of untreated cells−absorbance of culture medium×100 […]
# HUVEC normal cells [3] = test: Apoptosis, Annexin V-FITC/PI flow cytometry; format: cell-based, human; settings: 50 μg/mL, 24 h; untreated approximately 7–8%
# Procedure: (§1) SK-MEL-24 (human melanoma cell line—HTB-71) and HUVEC (human primary umbilical vein endothelial cells—CRL-1730) were purchased from the American Type Culture Collection (ATCC). HUVEC normal cells were used as a reference. Adherent cells were maintained in culture in DMEM/F12 medium added by 2 mM L-glutamine, 10% fetal bovine serum, 100 units/mL penicillin, 100 μg/mL streptomycin, and incubated at 37 °C in 5% CO2 humidified atmosphere. After 24 h, adherent cells were treated with different concentrations of the compounds for different timeframes. A 5-FU conventional oncology drug used in cancer treatments can be used as a positive control of the experiments. Cell treatments of compounds were carried out using concentrations of 200, 100, 50, 25, 12.5, 6.25, 3.125, and 1.56 μg/mL of the drug. Then, cells were detached with a nonenzymatic PBS/1 mM EDTA solution washed twice in PBS.
# (§2) The apoptosis assay was performed according to the manufacturer’s instructions using the Annexin V-FITC kit from BD Biosciences. Cells treated and untreated with the experimental compound were resuspended in a cold binding buffer. The percentages of apoptotic cells were determined by double staining with Annexin V-FITC/PI. In each tube was added 400 μL of Annexin V binding buffer and the 5000 cells/sample for 15 min in the dark at room temperature. The cells were analyzed using a FACS CantoII flow-cytometer (Becton Dickinson—BD). The analysis was performed using DIVA 6.2 software to discriminate viable cells (FITC-PI-) from necrotic cells (FITC+PI+) and early apoptosis (FITC+PI-) from late apoptosis.
# SK-MEL-24 tumor cells [4] = test: Apoptosis, Annexin V-FITC/PI flow cytometry; format: cell-based, human; settings: 5 and 50 μg/mL
# Procedure: as §1, §2
# HUVEC normal cells [5] = test: Cell cycle analysis by flow cytometry; format: cell-based, human
# Procedure: as §1
# (§3) In this experiment, 5 × 10^5 cells that had been previously fixed were washed and resuspended in PBS. The CycleTEST PLUS DNA Reagent kit from BD Biosciences was used according to the manufacturer’s protocol for the assay. The probes were kept in the dark and at 4 °C until data acquisition by flow cytometry (Becton Dickinson—BD) using a FACSCantoII flow cytometer from BD. The ModFIT v3.2 software was used to analyze the data and estimate the DNA index (DI) and progression through cell cycle phases.
# SK-MEL-24 tumor cells [6] = test: Cell cycle analysis by flow cytometry; format: cell-based, human
# Procedure: as §1, §3
# [7] = Thermogravimetric analysis; format: physicochemical; settings: TGA, 10 °C/min, nitrogen
# Procedure: Thermogravimetric analysis (TGA) was performed for NLC-DTX, NLC-Blank, and their components (DTX, GC, G43/01, MCT, S-PC-3, T80, mannitol) using thermal analyzer TGA Q5000IR (TA Instruments, New Castle, DE, USA). TGA curves were generated with a heating rate of 10 °C/min over a temperature range from room temperature to 700 °C, under a dynamic nitrogen atmosphere (50 mL/min). The samples were placed in a platinum pan (100 µL).
# [8] = parameters: method as in PMID 32164731, PMID 33531521, PMID 31310876, PMID 25974386; settings: cited from earlier work
# [9] = parameters: method as in PMID 32164731, PMID 25974386; settings: cited from earlier work
smiles,measurement,setting,value
"CC(=O)O[C@@]12CO[C@@H]1C[C@H](O)[C@@]1(C)C(=O)[C@H](O)C3=C(C)[C@@H](OC(=O)[C@H](O)[C@@H](NC(=O)OC(C)(C)C)c4ccccc4)C[C@@](O)([C@@H](OC(=O)c4ccccc4)[C@H]21)C3(C)C [DTX, Docetaxel]",docetaxel solubility in Gelucire 43/01,[1],10 mg/g
same,docetaxel solubility in tetradecanoic acid,[1],16 mg/g
same,IC50,"HUVEC normal cells [2]; Homo sapiens, HUVEC, tested range 1.56–200 μg/mL, read-out: IC50 on HUVECs",< 1.56 µg/mL
same,cell death (reduction in HUVEC viability),"HUVEC normal cells [2]; all tested concentrations (1.56–200 μg/mL), after 24 and 48 h",over 50%
same,apoptosis,HUVEC normal cells [3],12.3%
same,effect on apoptosis,"SK-MEL-24 tumor cells [4]; 24 and 48 h, untreated approximately 4–5%",sustained increases in apoptosis
same,increase in apoptosis,"SK-MEL-24 tumor cells [4]; after 48 h, vs untreated",two-fold
same,cell cycle alterations,"HUVEC normal cells [5]; 50 μg/mL, 24 h",G2/M arrest
same,cell cycle alterations,"HUVEC normal cells [5]; 50 μg/mL, 48 h","a decrease in the G1 population, and an increase in the S phase"
same,cell cycle alterations,"HUVEC normal cells [5]; 24 h, concentration not given",a decrease in the S phase accompanied by an increase in the G2 phase
same,cell cycle alterations,"HUVEC normal cells [5]; 48 h, independent of the concentration",an increase in the S phase and a significant decrease in the G1 phase
same,cell cycle distribution,"SK-MEL-24 tumor cells [6]; 5 μg/mL, 24 h and 48 h",decreases the G1 phase and increases the G2 phase
same,cell cycle distribution,"SK-MEL-24 tumor cells [6]; 50 μg/mL, 24 h",a decrease in the S phase accompanied by an increase in the G2 phase
same,cell cycle distribution,"SK-MEL-24 tumor cells [6]; 50 μg/mL, 48 h",a significant decrease in the S phase
same,thermal stability limit,[7],approximately 120 °C
same,water solubility,[8],4.93 µg/mL
same,logp value,[9],4.1
